In article PMC10608985, “Retention Behavior of Anticancer Thiosemicarbazides in Biomimetic Chromatographic Systems and In Silico Calculations” (Molecules, 2023):

Assays:
[1] = target: T1, human serum albumin (HSA) (Homo sapiens, UniProt P02768); experiment: HPLC on immobilized HSA column, affinity and % plasma–protein binding; type: in vitro ADME; settings: for log K HSA: binding equilibrium constant from calibration curve (Equation 8) of log k HSA; for fraction unbound: human, pH 7.4, % plasma–protein binding converted from log K HSA (Equation 10), read-out: %PPB HSA (converted); for log k HSA: retention on HSA column, 50 mM ammonium acetate pH 7.4 / propan-2-ol 85/15 (v/v)
T1 construct: purchased Chiralpac
Method: (§1) Measurements on HSA and AGP immobilized protein columns were carried out with […] isopropanol content in the aqueous mobile phase.
(§2) The standard calibration curve was used to predict log K values (K—binding equilibrium constant) of investigated compounds to HSA and AGP. Next, the log K values were converted into a percentage of plasma–protein binding (%PPB) of the compounds (Table 2). […] It is the lowest for compound 16 with -NO2 substituent, unsubstituted compound 1, and fluorine derivatives 2 and 9. In a group of […] derivatives in the same position of the phenyl ring, the %PPB to AGP increases with the increase in the atomic weight of the halogen atom and the lipophilicity of the molecule.
(§3) HPLC measurements were performed using a liquid chromatograph Knauer (Knauer, Berlin, Germany) with a dual pump, a 20 µL simple injection valve, and a UV–visible detector. The compounds were detected under UV light at 280 nm at room temperature. The retention time of an unretained solute (t0) was determined by the injection of a small amount of citric acid dissolved in water.
(§4) A human serum albumin (HSA) immobilized on the 5 µm silica gel column 100 × 3 mm (Chiralpac) and an α1-acid glycoprotein (AGP) immobilized on the 5 µm silica gel column 100 × 4 mm (Chiralpac) were used. The compounds were dissolved at 0.5 mg/mL concentration in 50% propan-2-ol and ammonium acetate solution (pH = 7.4) mixtures for HSA measurements. The mobile phase was composed of 50 mM ammonium acetate solution (pH = 7.4) and propan-2-ol at 85/15 (v/v) for AGP, respectively. The flow of mobile phases was 0.5 mL×min^−1. Log k values for the selected mobile phase were determined for all studied compounds and standard substances. The % protein plasma binding (% PPB) values were calculated from the calibration curve according to Valko et al..
(§5) Calibration of the protein columns: The column performance check and the calibration check were performed before measurements. The racemic mixture of warfarin was used for their performance evaluation. The following calibration set of drugs was applied: bromazepam, carbamazepine, diclofenac, nicardipine, nizatidine, piroxicam for HSA and bromazepam, chlorpromazine, imipramine, nicardipine, nizatidine, propranolol, and warfarin for AGP. The analytical standards were purchased from Sigma Aldrich Steinhen, Steinheim am Albuch, Germany). The drugs were dissolved at 0.5 mg/mL concentration in 50% propan-2-ol and ammonium acetate solution mixtures (pH = 7.4). The obtained log k values from HPLC were plotted against the log K values (K—binding equilibrium constant, log K—linearized PPB) based on the literature data for plasma–protein binding (%, PPB). The following relationships were obtained: log KHSA = 0.2513 (±0.0984) + 1.0525 (±0.1171) log k HSA(8) n=6, R=0.9761, R^2 = 0.9528, Radj2 = 0.9410, s = 0.1948 log KAGP = 0.1733 (±0.0574) + 0.8902 (±0.0787) log k AGP(9) n=7, R=0.9810, R^2 = 0.9623, Radj2 = 0.9548, s = 0.1113
(§6) Log K values were converted into %PPB using the following equation [15]:(10) %PPB=101×10^logK/1+10^logK

[2] = parameters: method as in Kozyra et al. [31]; settings: MeOH/20 mM acetate buffer, pH 7.4, ref Kozyra et al. [31], cited from earlier work; for log kw C-18: intercept of Soczewiński–Wachtmeister equation (water as mobile phase); for -S C-18: slope of Soczewiński–Wachtmeister equation
[3] = HPLC lipophilicity on cholesterol (Chol) stationary phase; type: physicochemical; settings: pH 7.4; for Log k Chol: Table S3; for log kw Chol: intercept, linear extrapolation to water; for log kw Chol / -S Chol: MeOH/20 mM acetate buffer; for -S Chol: slope of Soczewiński–Wachtmeister equation
Method: (§7) For the evaluation of the compounds the following stationary phases were used: C-18; biomimetic, IAM; cholesterol (Chol); immobilized proteins HSA and AGP. For the lipophilicity determination, MeOH (C-18, Chol) or ACN (IAM) were applied as the organic modifiers. The measurements were performed at pH 7.4 of the mobile phase. The regular changes in the retention of all solutes used as organic modifier content in the mobile phase on three studied stationary phases were found. It is expressed by the Soczewiński–Wachtmeister Equation (1):log k = log kw + S (% organic modifier)(1) where log kw—the intercept; S—the slope of regression curve. […] Log kw as well as S parameters are commonly applied as lipophilicity descriptors.
as §3
Cogent 4 UDC Cholesterol (150 × 2.1 mm, 4 µm) MicroSolv Technology Corporation (Leland, NC, USA) column was used. The mobile phase consisted of different volume mixtures of MeOH as the organic modifier and 20 mM acetate buffer as the aqueous phase, to obtain pH = 7.4. The concentrations of the organic modifier were in the range from 0.3 to 0.8 (v/v) with step 0.05 or 0.1 (Table S3 in the Supplementary Materials). The flow rate was 0.35 mL × min^−1.

[4] = system: α1-acid glycoprotein (AGP); experiment: HPLC on immobilized AGP column, affinity and % plasma–protein binding; type: in vitro ADME, human; settings: for log K AGP: binding equilibrium constant from calibration curve (Equation 9) of log k AGP; for fraction unbound: human, pH 7.4, % plasma–protein binding converted from log K AGP (Equation 10), read-out: %PPB AGP (converted); for log k AGP: retention on AGP column, 50 mM ammonium acetate pH 7.4 / propan-2-ol 85/15 (v/v)
Method: as §1, §2, §3, §4, §5, §6

[5] = HPLC lipophilicity on IAM (immobilized artificial membrane, phosphatidylcholine) stationary phase; type: physicochemical; settings: pH 7.4; for Log k IAM: Table S2; for log kw IAM: intercept, linear extrapolation to water; for log kw IAM / -S IAM: ACN/20 mM phosphate buffer; for -S IAM: slope of Soczewiński–Wachtmeister equation
Method: as §7, §3
A Rexchrom IAM.PC.DD2 (12 μm, 100 × 4.6 mm, 300 Å) (Regis Technologies, Morton Grove, IL, USA) column was used as the stationary phase. The compounds were dissolved at a concentration of 0.5 mg × mL^−1 in MeOH. The mobile phases consisted of different volume fractions of ACN and 20 mM phosphate buffer; the aqueous phase maintained a pH = 7.4 (0.02 M KH2PO4, Na2HPO4 and 0.15 M KCl). The acetonitrile concentration ranged from 0.05 to 0.4 (v/v), depending on the structure of compound, at 0.05 intervals (Table S2 in the Supplementary Materials). The flow rate was 1 mL × min^−1.

T1 sequence (P02768 25-609): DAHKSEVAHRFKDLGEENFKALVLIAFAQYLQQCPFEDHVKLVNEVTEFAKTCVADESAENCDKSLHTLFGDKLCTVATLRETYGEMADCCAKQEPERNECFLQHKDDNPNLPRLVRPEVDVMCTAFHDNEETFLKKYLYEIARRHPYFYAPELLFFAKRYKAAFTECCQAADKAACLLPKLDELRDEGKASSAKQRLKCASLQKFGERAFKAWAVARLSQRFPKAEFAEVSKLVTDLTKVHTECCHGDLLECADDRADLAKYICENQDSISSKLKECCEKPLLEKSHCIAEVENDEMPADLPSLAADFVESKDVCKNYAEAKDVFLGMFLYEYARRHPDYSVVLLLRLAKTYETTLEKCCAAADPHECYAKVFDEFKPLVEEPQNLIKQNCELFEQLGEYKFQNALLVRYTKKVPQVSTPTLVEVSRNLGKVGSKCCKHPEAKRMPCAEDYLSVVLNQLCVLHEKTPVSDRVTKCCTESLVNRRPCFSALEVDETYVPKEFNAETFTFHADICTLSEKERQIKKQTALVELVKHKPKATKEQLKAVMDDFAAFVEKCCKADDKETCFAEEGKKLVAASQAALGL

| SMILES | log K HSA [1] | fraction unbound [1] | log k HSA [1] | log kw C-18 [2] | -S C-18 [2] | Log k Chol ([3]; MeOH 0.30 v/v in mobile phase) | Log k Chol ([3]; MeOH 0.45 v/v in mobile phase) | Log k Chol ([3]; MeOH 0.50 v/v in mobile phase) | Log k Chol ([3]; MeOH 0.60 v/v in mobile phase) | log kw Chol [3] | -S Chol [3] | log K AGP [4] | fraction unbound [4] | log k AGP [4] | Log k IAM ([5]; ACN 0.15 v/v in mobile phase) | Log k IAM ([5]; ACN 0.20 v/v in mobile phase) | Log k IAM ([5]; ACN 0.25 v/v in mobile phase) | Log k IAM ([5]; ACN 0.35 v/v in mobile phase) | log kw IAM [5] | -S IAM [5] | other results |
| --- | --- | --- | --- | --- | --- | --- | --- | --- | --- | --- | --- | --- | --- | --- | --- | --- | --- | --- | --- | --- | --- |
| O=C(COc1ccccc1)NNC(=S)Nc1cccc2ccccc12 [Compound 18] | 1.5246 | 0.019 | 1.2098 | 2.6769 | 4.6919 | 1.494 | 0.758 | 0.405 | 0.062 | 3.0227 | 5.0400 | 0.7514 | 0.142 | 0.6494 | 0.809 | 0.533 | 0.278 | -0.258 | 1.6606 | 5.6500 | Log k Chol ([3]; MeOH 0.35 v/v in mobile phase): 1.296; Log k Chol ([3]; MeOH 0.40 v/v in mobile phase): 1.025; Log k Chol ([3]; MeOH 0.80 v/v in mobile phase): -1.016; Log k IAM ([5]; ACN 0.10 v/v in mobile phase): 1.105; Log k IAM ([5]; ACN 0.30 v/v in mobile phase): -0.130 |
| O=C(COc1ccccc1)NNC(=S)Nc1ccc(Cl)cc1 [Compound 10] | 1.9333 | 0.002 | 1.5981 | 2.5914 | 4.5132 | 1.475 | 0.836 | 0.479 | 0.206 | 2.9842 | 4.8387 | 0.5075 | 0.23 | 0.3754 | 1.009 | 0.673 | 0.368 | -0.210 | 1.8779 | 6.0976 | Log k Chol ([3]; MeOH 0.35 v/v in mobile phase): 1.331; Log k Chol ([3]; MeOH 0.40 v/v in mobile phase): 1.050; Log k Chol ([3]; MeOH 0.70 v/v in mobile phase): -0.396; Log k Chol ([3]; MeOH 0.80 v/v in mobile phase): -0.946; Log k IAM ([5]; ACN 0.10 v/v in mobile phase): 1.235; Log k IAM ([5]; ACN 0.30 v/v in mobile phase): -0.038 |
| O=C(COc1ccccc1)NNC(=S)Nc1ccc(Cl)c(Cl)c1 [Compound 15] | 1.8712 | 0.003 | 1.5391 | 3.3757 | 5.3305 |  | 1.349 | 1.013 | 0.792 | 4.2283 | 6.2128 | 0.9150 | 0.099 | 0.8332 | 1.542 | 1.032 | 0.667 | -0.062 | 2.5780 | 7.5617 | Log k Chol ([3]; MeOH 0.70 v/v in mobile phase): -0.087; Log k Chol ([3]; MeOH 0.80 v/v in mobile phase): -0.876; Log k IAM ([5]; ACN 0.30 v/v in mobile phase): 0.158; Log k IAM ([5]; ACN 0.40 v/v in mobile phase): -0.346 |
| O=C(COc1ccccc1)NNC(=S)Nc1ccc([N+](=O)[O-])cc1 [Compound 16] | 1.7456 | 0.008 | 1.4198 | 2.7200 | 5.1865 | 1.264 | 0.478 | 0.093 | -0.189 | 2.8538 | 5.2122 | 0.3508 | 0.302 | 0.1994 | 0.590 | 0.253 | 0.016 | -0.533 | 1.5455 | 6.0875 | Log k Chol ([3]; MeOH 0.35 v/v in mobile phase): 1.082; Log k Chol ([3]; MeOH 0.40 v/v in mobile phase): 0.843; Log k IAM ([5]; ACN 0.05 v/v in mobile phase): 1.287; Log k IAM ([5]; ACN 0.10 v/v in mobile phase): 0.964 |
| O=C(COc1ccccc1)NNC(=S)Nc1ccc(F)cc1 [Compound 9] | 1.2852 | 0.04 | 0.9823 | 2.1145 | 4.2984 | 1.111 | 0.523 | 0.179 | -0.078 | 2.4029 | 4.2398 | 0.3891 | 0.283 | 0.2424 | 0.336 | 0.088 | -0.150 | -0.467 | 1.1652 | 5.1370 | Log k Chol ([3]; MeOH 0.35 v/v in mobile phase): 0.970; Log k Chol ([3]; MeOH 0.40 v/v in mobile phase): 0.696; Log k Chol ([3]; MeOH 0.80 v/v in mobile phase): -0.997; Log k IAM ([5]; ACN 0.05 v/v in mobile phase): 1.054; Log k IAM ([5]; ACN 0.10 v/v in mobile phase): 0.588; Log k IAM ([5]; ACN 0.30 v/v in mobile phase): -0.484 |
